The record followed here is patent US20210087240A1, “BLOCKING GARP CLEAVAGE AND METHODS OF USE THEREOF” (MUSC FOUNDATION FOR RESEARCH DEVELOPMENT, priority 2017, published 2021).

Data set [1] deals with T1, GARP (Glycoprotein-A Repetitions Predominant Protein), wild type, expressed on PreB cells.
T1 sequence: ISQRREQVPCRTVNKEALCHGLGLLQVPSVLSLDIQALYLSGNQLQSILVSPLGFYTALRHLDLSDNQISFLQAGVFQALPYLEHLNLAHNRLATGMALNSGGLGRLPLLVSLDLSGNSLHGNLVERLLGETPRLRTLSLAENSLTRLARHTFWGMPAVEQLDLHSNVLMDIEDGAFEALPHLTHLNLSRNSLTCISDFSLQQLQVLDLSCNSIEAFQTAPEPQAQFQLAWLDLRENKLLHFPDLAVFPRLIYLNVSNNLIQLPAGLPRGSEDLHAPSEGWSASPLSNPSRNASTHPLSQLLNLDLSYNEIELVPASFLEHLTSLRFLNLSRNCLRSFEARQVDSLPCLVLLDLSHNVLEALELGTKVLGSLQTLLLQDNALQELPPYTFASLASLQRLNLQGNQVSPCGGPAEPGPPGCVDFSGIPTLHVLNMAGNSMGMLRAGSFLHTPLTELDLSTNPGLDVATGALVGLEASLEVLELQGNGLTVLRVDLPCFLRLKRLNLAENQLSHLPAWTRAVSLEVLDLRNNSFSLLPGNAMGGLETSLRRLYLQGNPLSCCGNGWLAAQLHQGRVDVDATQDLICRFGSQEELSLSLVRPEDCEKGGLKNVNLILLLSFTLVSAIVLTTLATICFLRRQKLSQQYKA

Data set [2] concerns recombinant form of soluble GARP (sGARP) where the transmembrane domain was replaced by IgG1 Fc fragment.
Data set [3] has as its system T2, GARP double mutant (DM) PR 267-268AA PR 286-287AA, expressed on PreB cells.
T2 sequence: T1 sequence with P249A, R250A, P268A, R269A

Data set [4] relates to TGF-β. In words: Serum active and total TGF-β ELISA in MC38 tumor bearing mice. It counts as in vivo. Here is the method: (§1) FIGS. 7A-7G: Direct thrombin inhibitor Dabigatran Etexilate reduces platelet GARP expression and protects against melanoma and colon cancer. (A) Flow cytometry analysis of surface GARP/LAP complex on murine WT platelets stimulated with and without thrombin and Dabigratan Etexilate. (B) Tumor growth curves of mice subcutaneously injected with B16-F1 melanoma cells and daily treated with 3 mg/mouse of Dabigratan Etexilate. (C) Tumor growth curves of mice subcutaneously injected with MC38 colon cancer cells and daily treated with 3 mg/mouse of Dabigratan Etexilate. (D) Serum was obtained from tumor bearing MC38 colon cancer and active (D) and total TGF-β (E) was measured by ELISA. (F) Serum was obtained from tumor bearing MC38 colon cancer and soluble GARP was measured by ELISA. (G) Percentage of regulatory T cells CD25+ FOXP3+ in the CD4+ tumor-infiltrating CD4+ lymphocytes (TIL) from the indicated mice.
(§2) Now, to establish the clinical relevance of the Thrombin-GARP/TGF-β axis, the direct thrombin inhibitor, Dabigatran Etexilate was employed. […] The anti-tumor efficacy of Dabigatran Etexilate was tested in 2 different tumor models. […] As a further proof of the mechanism employed by dabigatran to exert its antitumor activity, serum active and total TGF-β, and serum GARP concentrations were assessed by ELISA.
A general note: An ELISA detects its analyte on a solid surface through an enzyme-linked reagent.

The test system of data set [5] is thrombin activated platelets. In words: Flow cytometry of surface GARP/LAP on platelets stimulated with thrombin. It counts as cell-based, murine. Here is the method: as §1, §2
A general note: A flow cytometer gives signals particle by particle.

The test system of data set [6] is B16-F1 melanoma cells. Briefly: B16-F1 melanoma tumor growth in mice. The following applies: subcutaneous B16-F1, daily 3 mg/mouse, no adoptive T cell transfer. The data set is classed as in vivo. Here is the method: as §1
(§3) (A) Tumor growth curves of mice subcutaneously injected with MC38 colon cancer cells and daily treated with 3 mg/mouse of Dabigatran etexilate. […]
(§4) Now, to establish the clinical relevance of the Thrombin-GARP/TGF-β axis, the direct thrombin inhibitor, Dabigatran Etexilate was employed. […] As a further proof of the mechanism employed by dabigatran to exert its antitumor activity, serum active and total TGF-β, and serum GARP concentrations were assessed by ELISA.

In data set [7] the test system is regulatory T cells CD25+ FOXP3+. Briefly: Regulatory T cells among tumor-infiltrating CD4+ lymphocytes. The data set is classed as in vivo, mice. The following applies: CD25+ FOXP3+ in CD4+ TIL. Here is the method: as §1, §2
For data set [8], the system named is TGFβ. Briefly: TGFβ ELISA on serum of WT B6 mice treated for one week. It counts as in vivo. The note with it: one week daily gavage of 3 mg/mouse. Here is the method: (A) Tumor growth curves of mice subcutaneously injected with MC38 colon cancer cells and daily treated with 3 mg/mouse of Dabigatran etexilate. (B) Tumor growth curves of mice subcutaneously injected with B16-F1 melanoma cells and daily treated with 3 mg/mouse of Dabigatran etexilate. (C) TGFβ ELISA on serum of WT B6 mice treated for one week with daily gavage of 3 mg/mouse of Dabigatran etexilate. Repeated measurement 2-way ANOVA was performed in A and B.

The test system of data set [9] is soluble GARP. Briefly: Serum soluble GARP ELISA in MC38 tumor bearing mice. It counts as in vivo. Here is the method: as §1, §2
For data set [10], the system named is MC38 colon cancer cells. Briefly: MC38 colon cancer tumor growth in mice. The data set is classed as in vivo. The following applies: subcutaneous MC38, daily 3 mg/mouse. Here is the method: as §1, §3, §4
The subject of data set [11] is MC38 colon cancer cells. Briefly: Dabigatran and PD1 blocking antibody combination therapy in MC38 tumor model. The data set is classed as in vivo, mice. The following applies: dabigatran 3 mg/mouse daily oral gavage, 200 μg anti-PD1 every 3 days from day 8. The text has this:
(A) Experimental design for Dabigatran and PD1 blocking antibody combination therapy. (B) Tumor growth curves of mice subcutaneously injected with MC38 colon cancer cells and treated with Dabigatran alone, with PD1 blocking antibody, with the combination of Dabigatran and PD1 blocking antibody or left untreated. (C) Survival curve in MC38-bearing mice treated with Dabigatran alone, with PD1 blocking antibody, with the combination of Dabigatran and PD1 blocking antibody or left untreated. Repeated measurement 2 way Anova was performed in B. Log-rank (Mantel-Cox) was performed in C. (D) Serum was collected from the mice under the dual treatment and analyzed for TGFβ concentration by TGFβ ELISA. (E) Platelets count of the mice under dual treatment. Repeated measurement 2-way ANOVA was performed in B. Log-rank (Mantel-Cox) was performed in C. Two-tailed, independent Student's t-test was used in panel D and E.
Next, Dabigatran was used in combination with PD1 blockade to block thrombin and consequentially platelet activation to achieve both a reduction of systemic and circulating TGF-β, and the abrogation of platelet-mediated tumor support. Platelets, indeed, secrete many other factors beyond TGF-β that facilitate tumor immune evasion. Animals harboring palpable tumors were daily treated with 3 mg/mouse dabigatran by oral gavage. […]

For data set [12], the system named is thrombin. In words: Competition assay: GARP expressing PreB cells digested with thrombin, western blot. The data set is classed as cell-based. The note with it: 4 μg thrombin. The text has this:
FIGS. 12A-12E: Thrombin cleaves GARP at the amino acid position 267 and 286 between proline and arginine. (A) Surface Flow cytometry analysis for GARP of WT PreB cells and GARP expression in PreB cells expressing WT GARP, GARP with single point mutation 267 aa, GARP with single point mutation 286 aa, GARP with double point mutation 267/286 aa (DM), and relative control vector. (B) Western Blot analysis of cells lysates and conditioned media of PreB cells expressing WT GARP, GARP with single point mutation 267 aa, GARP with single point mutation 286 aa, or GARP with double point mutation 267/286 aa using antibody against GARP. (C) PreB cells expressing WT or DM GARP were digested with increasing concentration of thrombin (0, 1, 2, and 4 μg in 25 μl), followed by western blot analysis. (D) Recombinant fragment of GARP containing the two Proline Arginine thrombin binding sites (T250; SEQ ID NO:1). (E) Western blotting analysis of GARP expressing PreB cells digested with 4 μg of thrombin in presence and absence of 4 μg of T250.
Thus, 3 types of mutants: PR 267-268AA (GARP 267), PR 286-287AA (GARP 286), and double mutant (DM) PR 267-268AA PR 286-287AA (GARP 267-286, -DM) were generated. […] Next, it tested whether GARP-DM was resistant to the cleavage of exogenous thrombin. To this end, PreB GARP-WT and PreB GARP-DM were treated with increasing concentrations of thrombin.
(Immunoblotting shows a protein as a band on a membrane.)

Residue numbers refer to the chain shown, from its start.

On to thrombin, for which, in data set [1], the “western blot after digestion of PreB GARP-WT with increasing concentrations of thrombin” value is “Both 44 and 29 KD fragments increased in a dose dependent fashion in GARP-WT”. Further, in data set [2], the “western blot of soluble GARP digested with increasing concentrations of thrombin” value is “digestion of soluble GARP with thrombin gave rise to 3 fragments: GARP full length (72 KD), and the 2 smaller fragments of 44 and 29 KD”. Further, the “western blot after digestion of PreB GARP-DM with increasing concentrations of thrombin” value in data set [3] is reported as “no cleaved products were observed in GARP-DM”.
As for `CCCCCCOC(=O)NC(=N)c1ccc(NCc2nc3cc(C(=O)N(CCC(=O)OCC)c4ccccn4)ccc3n2C)cc1` [Dabigatran, Dabigatran Etexilate], in data set [4], the “serum total TGF-β” value was “reduced serum total TGF-β”. Also, in [4] (difference to untreated not statistically significant), the “serum active TGF-β, mean” value was determined as 42.47±23.73. Moreover, in [5], the “GARP expression on platelets” value is listed as “increase of GARP expression on platelets can be neutralized”. Moreover, the B16-F1 tumor growth entry in data set [6] is listed as “reduced B16-F1 tumor aggressiveness”. The “TGF-β mediated induction of Tregs in the tumor microenvironment” value in data set [7] is listed as “reduces the TGF-β mediated induction of Tregs”. Also, the “systemic active TGFβ” value in data set [8] is given as “decreases systemic active TGFβ”. For the same molecule, the “serum soluble GARP” value in data set [9] is “impairs the release of serum soluble GARP from platelets”. In addition, the MC38 tumor growth result in data set [10] is recorded as “sufficient to decrease the rate of tumor growth”; in data set [10] (listed as Dabigatran etexilate), “has anti-cancer effect in MC38 colorectal cancer”. In [11], the tumor growth result is “effective in reducing tumor growth”.
On to “T250: Recombinant fragment of GARP containing the two Proline Arginine thrombin binding sites; DLRENKLLHFPDLAVFPRLIYLNVSNNLIQLPAGLPRGSEDLHAPSEGWSA (SEQ ID NO:1) (GARP peptide)”, for which the “competition with surface GARP in binding with thrombin” value in [12] (4 μg T250) is “competed with surface GARP in binding with thrombin”. For the same molecule, in [12] (in presence of exogenous thrombin, 4 μg T250, western blot), the GARP cleavage entry is recorded as “able to reduce GARP cleavage”.
